Some test systems named below: SK-MEL-28; COLO 205; IGROV-1; EKVX; 786-0; K562; HCT-15; RPMI-8226; TK-10; OVCAR-4; A549; SF-295; SR; OVCAR-8; NCI-H522; KM12; UO-31; A498.
What all share (assay): NCI anticancer screen, dose series, 48 h

SMILES strings stand for the structures.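 Cultured in 96-well plates, cells were exposed to test compound for 48 hours across five concentrations. Here, GI50 denotes the concentration required for 50% inhibition of growth.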 The source made the active and inactive calls. Rule as the data show it: active = GI50 up to about 1.1 µM and inactive = higher. Where only a bound is given, the exact number is not on record here.

The text below walks through data of ChEMBL document CHEMBL1201862, “PubChem BioAssay data set” (2004).

Take `Cc1cccc2nc3n(c12)C(=O)c1ccccc1-3`: the GI50 in the test with SK-MEL-28 is > 100 µM (inactive); with COLO 205, > 100 µM (inactive); in the test on IGROV-1, > 100 µM (inactive); in the test with EKVX it was 91.4 µM (inactive); in the test on 786-0 it was > 100 µM (inactive); with K562, > 100 µM (inactive). Moreover, the GI50 in the test on HCT-15 was greater than 100 µM; in the test on RPMI-8226, > 100 µM (inactive); in the test with TK-10, > 100 µM (inactive); with OVCAR-4 it was > 100 µM (inactive); with A549, > 100 µM (inactive); in the test with SF-295, 49.9 µM (inactive). Besides, the GI50 in the test with SR, with OVCAR-8, in the test on NCI-H522, in the test with KM12 and in the test with UO-31 was > 100 µM (inactive) each time.
In the case of `COc1cc(/C=C(\C)c2ccc3c(c2)OCO3)cc(OC)c1OC`, the GI50 was 41.1 µM (inactive) in the test on SK-MEL-28; 18.5 µM (inactive) in the test with COLO 205; 25.1 µM (inactive) in the test with IGROV-1; 10.4 µM (inactive) in the test on EKVX; 21.3 µM (inactive) in the test with 786-0; 10.4 µM (inactive) with K562. Moreover, the GI50 was 26.1 µM in the test on HCT-15; 47 µM (inactive) with TK-10; 32.5 µM (inactive) in the test on OVCAR-4; 18.5 µM (inactive) with A549; 25.2 µM (inactive) in the test with SF-295; 19.3 µM (inactive) with SR. In addition, the GI50 was 29.8 µM (inactive) with OVCAR-8; 20.2 µM (inactive) in the test with NCI-H522; 44.5 µM (inactive) with KM12; 27.3 µM (inactive) in the test with UO-31; 17.6 µM (inactive) with A498.
Take `CCCCCCCCCCCCCP(=O)(NCC(N)=O)OCC` (stereo not drawn): the GI50 with SK-MEL-28 is 18.2 µM (inactive); in the test on COLO 205 it was 17.2 µM (inactive); with IGROV-1 it was 18.5 µM (inactive); in the test on EKVX it was 19.2 µM (inactive); in the test with 786-0, 15.4 µM (inactive); with HCT-15, 17.8 µM. Moreover, the GI50 was 18.7 µM (inactive) with TK-10; 16.7 µM (inactive) with OVCAR-4; 20.3 µM (inactive) with A549; 17.3 µM (inactive) with SF-295; 21.4 µM (inactive) in the test on OVCAR-8; > 10 µM (inactive) in the test on NCI-H522. Also, the GI50 with KM12 was 18.4 µM (inactive); with UO-31, 13.6 µM (inactive); in the test with A498 it was 35.6 µM (inactive).
On to `C/C(=C\c1ccccc1)C(=O)c1c(C)cc(C)cc1C`, for which the GI50 in the test with SK-MEL-28, in the test with COLO 205, in the test with IGROV-1, in the test on EKVX, with 786-0 and in the test with K562 was > 100 µM (inactive) in each case. In addition, the GI50 with HCT-15 is greater than 100 µM; in the test on RPMI-8226, > 100 µM (inactive); in the test on TK-10, > 100 µM (inactive); in the test on OVCAR-4 it was > 100 µM (inactive); with A549 it was > 100 µM (inactive); with SF-295 it was > 100 µM (inactive). Besides, the GI50 in the test with SR, in the test on OVCAR-8, in the test with NCI-H522, in the test with KM12 and in the test with UO-31 was > 100 µM (inactive) throughout.
For the compound `CC[C@@H]1OC2(C)CC(S(=O)(=O)c3ccccc3)CC1O2` (stereo partly drawn), the GI50 in the test with SK-MEL-28, with COLO 205, with IGROV-1, in the test on EKVX, with 786-0 and in the test with K562 was > 100 µM (inactive) in each case. Moreover, the GI50 in the test with HCT-15 is greater than 100 µM; in the test with RPMI-8226 it was > 100 µM (inactive); in the test with OVCAR-4 it was > 100 µM (inactive); in the test on A549 it was > 100 µM (inactive); in the test with SF-295, > 100 µM (inactive); with SR, > 100 µM (inactive). Besides, the GI50 with OVCAR-8, in the test with NCI-H522, in the test with KM12 and in the test with UO-31 was > 100 µM (inactive) each time.
As to `Nc1ccc(C(=O)N/C(=C\c2ccc3c(c2)OCO3)c2nc3c(O)nc(S)nc3[nH]2)cc1`, the GI50 in the test with SK-MEL-28, in the test on COLO 205, in the test with IGROV-1, in the test on EKVX, in the test on 786-0 and with K562 was > 100 µM (inactive) each time. Besides, the GI50 in the test with HCT-15 is greater than 100 µM; with TK-10 it was > 100 µM (inactive); with OVCAR-4, > 100 µM (inactive); in the test with A549, > 100 µM (inactive); in the test on SF-295, > 100 µM (inactive); with SR it was > 100 µM (inactive). For the same compound, the GI50 with OVCAR-8, in the test with NCI-H522, in the test on KM12 and in the test on UO-31 was > 100 µM (inactive) in each case.
`CC(=O)N(C(C)=O)c1c(N)n(C)c(=O)[nH]c1=O`: the GI50 in the test on SK-MEL-28, with COLO 205, in the test on IGROV-1, in the test on EKVX, in the test with 786-0 and with K562 was > 100 µM (inactive) each time. Moreover, the GI50 with HCT-15 was greater than 100 µM; with RPMI-8226, > 100 µM (inactive); in the test with OVCAR-4 it was > 100 µM (inactive); in the test on A549, > 100 µM (inactive); with SF-295, > 100 µM (inactive); in the test on OVCAR-8, > 100 µM (inactive). In addition, the GI50 in the test on KM12, in the test with UO-31 and with A498 was > 100 µM (inactive) throughout.
As for `CCOC(=O)C(C)(C)Oc1ccc2c(-c3ccc(Cl)cc3)cc(=O)oc2c1`, the GI50 in the test with SK-MEL-28, in the test on COLO 205, in the test on IGROV-1, with EKVX, in the test with 786-0 and in the test with K562 was > 100 µM (inactive) each time. The GI50 in the test with HCT-15 was greater than 100 µM; with RPMI-8226 it was > 100 µM (inactive); in the test with TK-10, > 100 µM (inactive); in the test with OVCAR-4, > 100 µM (inactive); with A549, > 100 µM (inactive); in the test on SF-295, > 100 µM (inactive). Besides, the GI50 in the test on SR, in the test with OVCAR-8, with UO-31 and in the test on A498 was > 100 µM (inactive) each time.
As for `CC1SC2=NC3=C(c4ccccc4C3=O)C(c3ccc(F)cc3)N2C1=O` (stereo not drawn), the GI50 in the test on SK-MEL-28, in the test on COLO 205, in the test on IGROV-1, with EKVX, with 786-0 and with K562 was > 100 µM (inactive) throughout. Besides, the GI50 in the test with HCT-15 was greater than 100 µM; in the test on RPMI-8226 it was 65.3 µM (inactive); in the test on TK-10, > 100 µM (inactive); in the test with OVCAR-4, 42.5 µM (inactive); with A549, > 100 µM (inactive); with SF-295, > 100 µM (inactive). Also, the GI50 in the test with OVCAR-8 was > 100 µM (inactive); with NCI-H522 it was 26.5 µM (inactive); in the test with KM12, > 100 µM (inactive); with UO-31 it was 38.9 µM (inactive); in the test on A498, > 100 µM (inactive).
On to `Nc1ccccc1[S+]([O-])c1ccccc1` (stereo not drawn), for which the GI50 with SK-MEL-28, with COLO 205, in the test on IGROV-1, in the test with EKVX, in the test with 786-0 and in the test on K562 was > 100 µM (inactive) in each case. For the same compound, the GI50 is greater than 100 µM in the test on HCT-15; > 100 µM (inactive) in the test with RPMI-8226; > 100 µM (inactive) in the test with TK-10; > 100 µM (inactive) in the test with OVCAR-4; > 100 µM (inactive) in the test on A549; > 100 µM (inactive) with SF-295. Besides, the GI50 with OVCAR-8, with NCI-H522, in the test with KM12, in the test with UO-31 and in the test with A498 was > 100 µM (inactive) throughout.
For `Nc1ccc(Nc2nc(F)nc(-c3c4ccccc4c4n3CCS4)n2)cc1`, the GI50 in the test on SK-MEL-28 was 15.8 µM (inactive); in the test with COLO 205 it was 19.1 µM (inactive); in the test with IGROV-1, 12.4 µM (inactive); with EKVX, 18.1 µM (inactive); in the test on 786-0, 15.7 µM (inactive); in the test on K562 it was > 10 µM (inactive). Further, the GI50 in the test with HCT-15 was 10.1 µM; in the test on TK-10, 19.6 µM (inactive); in the test on OVCAR-4, 15 µM (inactive); in the test with A549, 10.5 µM (inactive); in the test with SF-295, 15.7 µM (inactive); in the test with OVCAR-8 it was 16.8 µM (inactive). The GI50 in the test with NCI-H522 was 14 µM (inactive); in the test with KM12, 10.9 µM (inactive); with UO-31, 8.38 µM (inactive).
On to `CCC(C)CC(C)CC(C)/C=C(\C)C1=C(C)CC(C)(O)O1` (stereo not drawn), for which the GI50 in the test with SK-MEL-28 is > 100 µM (inactive); in the test on COLO 205 it was > 100 µM (inactive); in the test on IGROV-1, > 100 µM (inactive); with EKVX it was > 100 µM (inactive); in the test on 786-0, 9.53 µM (inactive); with K562, 46.7 µM (inactive). Besides, the GI50 is greater than 100 µM with HCT-15; 24.4 µM (inactive) in the test on RPMI-8226; > 100 µM (inactive) in the test on TK-10; 85.7 µM (inactive) with A549; 69.7 µM (inactive) in the test with OVCAR-8; 42.2 µM (inactive) in the test on NCI-H522. For the same compound, the GI50 is 26.3 µM (inactive) in the test on UO-31 and > 100 µM (inactive) with A498.
In the case of `C[C@@H]1C2=CC[C@@]3(C)C(CCC3[C@H](C)[C@H]3C[C@@]4(C)O[C@@](c5cccnc5)(O3)OC4(C)C)[C@@H]2C2OC2[C@@]12CCC(=O)O2` (stereo partly drawn), the GI50 in the test on SK-MEL-28 was 90.8 µM (inactive); with COLO 205 it was 30 µM (inactive); in the test with IGROV-1 it was 76.6 µM (inactive); in the test with 786-0, 38.2 µM (inactive); in the test with K562, 27.5 µM (inactive); with HCT-15, 32.1 µM. Further, the GI50 was 29.2 µM (inactive) in the test on RPMI-8226; 44.8 µM (inactive) with TK-10; 67.8 µM (inactive) in the test with A549; 31.2 µM (inactive) in the test with SF-295; 9.4 µM (inactive) in the test with SR; 32.4 µM (inactive) in the test on OVCAR-8. Also, the GI50 with NCI-H522 was 29.3 µM (inactive); in the test on KM12, 38.8 µM (inactive); with UO-31, 34.4 µM (inactive); with A498, > 100 µM (inactive).
